Results as given in ChEMBL document CHEMBL2390865, “Discovery of aryl ureas and aryl amides as potent and selective histamine H3 receptor antagonists for the treatment of obesity (part II)” (Bioorg Med Chem Lett, 2013).
pEC50, pIC50, pKi: −log10 of the molar value. Converted amounts (≈) assume the structure as drawn. The source made the active and inactive calls. The rule behind the calls is not given here.

What was measured:
[1] = Displacement of [3H]N-alpha-methylhistamine from rhesus monkey histamine H3 receptor transfected in CHO cells; format: cell-based, Macaca mulatta
[2] = Drug metabolism in human liver microsomes; format: ADME, Microsome; conditions: read-out: Drug metabolism
[3] = Drug metabolism in mouse liver microsomes; format: ADME, Microsome; conditions: read-out: Drug metabolism
[4] = Drug metabolism in rat liver microsomes; format: ADME, Microsome; conditions: read-out: Drug metabolism
[5] = Apparent permeability across human Caco2/TC7 cells; format: ADME, cell-based; conditions: Caco-2
[6] = target: T1, Histamine H3 receptor (Homo sapiens, UniProt Q9Y5N1); assay: Antagonist activity at human histamine H3 receptor at 10 uM by GTPgammaS binding assay; format: functional
[7] = target: T1, Histamine H3 receptor; assay: Antagonist activity at human histamine H3 receptor by FLIPR assay
[8] = target: Histamine H1 receptor (Homo sapiens, UniProt P35367); assay: Binding affinity to human histamine H1 receptor
[9] = tested on: Mus musculus; assay: Antiobesity activity in po dosed diet-induced obese mouse assessed as reduction in accumulated food intake after 4 to 12 hrs; format: functional, organism-based
[10] = target: T1, Histamine H3 receptor; assay: Displacement of [3H]N-alpha-methylhistamine from human histamine H3 receptor
[11] = target: Voltage-gated inwardly rectifying potassium channel KCNH2 (Homo sapiens, UniProt Q12809); assay: Inhibition of human ERG channel
[12] = Antagonist activity at rhesus monkey histamine H3 receptor by GTPgammaS binding assay; set-up: species or system Macaca mulatta
[13] = tested on: Mus musculus; assay: Antiobesity activity in diet-induced obese mouse assessed as reduction in accumulated food intake at 1 to 3 mg/kg, po after 4 hrs (reference value: -4.7 %); format: functional; set-up: scale not given: the % may be the effect or the level left; conditions: dose mg/kg 1-3
[14] = tested on: Mus musculus; assay: Antiobesity activity in diet-induced obese mouse assessed as reduction in accumulated food intake at 1 to 3 mg/kg, po after 6 hrs (reference value: 0.1 %); format: functional; set-up: scale not given: the % may be the effect or the level left; conditions: dose mg/kg 1-3
[15] = tested on: Mus musculus; assay: Antiobesity activity in diet-induced obese mouse assessed as reduction in accumulated food intake at 1 to 3 mg/kg, po after 12 hrs (reference value: 27.3 %); format: functional; set-up: scale not given: the % may be the effect or the level left; conditions: dose mg/kg 1-3
[16] = target: Histamine H3 receptor (Rattus norvegicus, UniProt Q9QYN8); assay: Displacement of [3H]N-alpha-methylhistamine from rat histamine H3 receptor
[17] = target: Histamine H2 receptor (Homo sapiens) (UniProt P25021); assay: Binding affinity to human histamine H2 receptor
[18] = Solubility of the compound; format: physicochemical
[19] = target: T2, hERG (KCNH2) (Homo sapiens, UniProt Q12809); assay: Inhibition of human ERG channel at 1 uM
[20] = target: T2, hERG (KCNH2); assay: Inhibition of human ERG channel at 10 uM

T1 sequence (Q9Y5N1 whole entry): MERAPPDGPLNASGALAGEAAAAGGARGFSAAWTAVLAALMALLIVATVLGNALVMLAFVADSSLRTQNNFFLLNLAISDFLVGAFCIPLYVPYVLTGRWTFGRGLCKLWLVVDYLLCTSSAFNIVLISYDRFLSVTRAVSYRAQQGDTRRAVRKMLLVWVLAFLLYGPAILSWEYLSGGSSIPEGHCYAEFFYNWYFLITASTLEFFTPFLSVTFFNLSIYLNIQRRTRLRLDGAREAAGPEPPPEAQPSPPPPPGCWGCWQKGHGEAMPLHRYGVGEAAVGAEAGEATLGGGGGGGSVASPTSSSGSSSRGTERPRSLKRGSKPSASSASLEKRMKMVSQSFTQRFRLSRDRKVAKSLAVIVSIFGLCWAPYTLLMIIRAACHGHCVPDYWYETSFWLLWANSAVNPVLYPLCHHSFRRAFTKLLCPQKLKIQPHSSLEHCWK
T2 sequence (Q12809 whole entry): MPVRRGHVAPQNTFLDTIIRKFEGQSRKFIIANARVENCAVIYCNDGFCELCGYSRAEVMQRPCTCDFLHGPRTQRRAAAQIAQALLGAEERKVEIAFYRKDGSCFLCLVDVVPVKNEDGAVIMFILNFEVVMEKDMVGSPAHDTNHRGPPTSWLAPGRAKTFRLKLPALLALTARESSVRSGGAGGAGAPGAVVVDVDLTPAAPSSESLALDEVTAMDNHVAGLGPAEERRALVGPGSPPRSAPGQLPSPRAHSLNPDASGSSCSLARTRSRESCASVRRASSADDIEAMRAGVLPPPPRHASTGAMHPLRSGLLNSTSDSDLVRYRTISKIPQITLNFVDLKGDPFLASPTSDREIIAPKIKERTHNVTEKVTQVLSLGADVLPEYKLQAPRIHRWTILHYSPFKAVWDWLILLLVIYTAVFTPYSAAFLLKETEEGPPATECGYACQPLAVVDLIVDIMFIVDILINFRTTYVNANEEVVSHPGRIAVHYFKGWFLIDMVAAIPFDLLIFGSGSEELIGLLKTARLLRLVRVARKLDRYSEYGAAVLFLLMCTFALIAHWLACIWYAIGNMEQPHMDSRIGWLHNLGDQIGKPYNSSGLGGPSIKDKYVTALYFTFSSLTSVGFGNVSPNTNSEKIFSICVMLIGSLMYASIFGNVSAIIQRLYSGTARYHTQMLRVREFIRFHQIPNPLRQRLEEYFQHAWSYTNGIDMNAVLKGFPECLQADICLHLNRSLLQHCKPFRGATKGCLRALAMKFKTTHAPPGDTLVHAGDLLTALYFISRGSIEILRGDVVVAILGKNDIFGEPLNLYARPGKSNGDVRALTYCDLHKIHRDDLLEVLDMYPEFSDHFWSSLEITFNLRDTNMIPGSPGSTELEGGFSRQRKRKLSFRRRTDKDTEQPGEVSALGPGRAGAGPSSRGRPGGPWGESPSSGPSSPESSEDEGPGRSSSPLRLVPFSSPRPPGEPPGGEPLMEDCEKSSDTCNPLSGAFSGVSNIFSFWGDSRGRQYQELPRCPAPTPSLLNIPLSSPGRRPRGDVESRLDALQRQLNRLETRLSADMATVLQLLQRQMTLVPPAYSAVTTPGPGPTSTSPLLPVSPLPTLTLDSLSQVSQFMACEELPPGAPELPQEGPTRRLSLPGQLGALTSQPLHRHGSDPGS
Sequence of Voltage-gated inwardly rectifying potassium channel KCNH2 (Q12809 whole entry): as above
Sequence of Histamine H1 receptor (P35367 whole entry): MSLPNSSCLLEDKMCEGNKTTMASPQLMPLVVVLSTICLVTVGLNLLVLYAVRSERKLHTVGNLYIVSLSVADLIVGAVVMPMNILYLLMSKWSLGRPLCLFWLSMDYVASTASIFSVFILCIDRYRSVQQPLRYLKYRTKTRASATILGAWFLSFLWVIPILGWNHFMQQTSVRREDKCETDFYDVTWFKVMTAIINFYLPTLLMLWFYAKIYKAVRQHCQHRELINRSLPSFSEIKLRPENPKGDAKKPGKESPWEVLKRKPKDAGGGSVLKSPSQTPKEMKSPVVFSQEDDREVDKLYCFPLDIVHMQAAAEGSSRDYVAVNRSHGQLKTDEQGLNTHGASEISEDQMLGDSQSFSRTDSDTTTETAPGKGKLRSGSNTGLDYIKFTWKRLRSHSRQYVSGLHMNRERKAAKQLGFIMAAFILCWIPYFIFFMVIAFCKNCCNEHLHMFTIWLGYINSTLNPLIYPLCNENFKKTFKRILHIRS
Sequence of Histamine H2 receptor (Homo sapiens) (P25021 whole entry): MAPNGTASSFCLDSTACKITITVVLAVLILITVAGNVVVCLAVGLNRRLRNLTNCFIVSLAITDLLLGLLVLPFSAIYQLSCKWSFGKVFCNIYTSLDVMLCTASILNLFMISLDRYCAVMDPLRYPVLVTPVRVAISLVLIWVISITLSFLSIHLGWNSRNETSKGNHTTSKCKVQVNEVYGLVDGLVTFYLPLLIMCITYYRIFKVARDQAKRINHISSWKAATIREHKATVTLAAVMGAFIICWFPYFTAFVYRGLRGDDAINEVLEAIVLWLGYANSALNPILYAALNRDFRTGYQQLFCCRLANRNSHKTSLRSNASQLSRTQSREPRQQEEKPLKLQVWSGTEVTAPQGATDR
Sequence of Histamine H3 receptor (Rattus norvegicus, UniProt Q9QYN8) (Q9QYN8 whole entry): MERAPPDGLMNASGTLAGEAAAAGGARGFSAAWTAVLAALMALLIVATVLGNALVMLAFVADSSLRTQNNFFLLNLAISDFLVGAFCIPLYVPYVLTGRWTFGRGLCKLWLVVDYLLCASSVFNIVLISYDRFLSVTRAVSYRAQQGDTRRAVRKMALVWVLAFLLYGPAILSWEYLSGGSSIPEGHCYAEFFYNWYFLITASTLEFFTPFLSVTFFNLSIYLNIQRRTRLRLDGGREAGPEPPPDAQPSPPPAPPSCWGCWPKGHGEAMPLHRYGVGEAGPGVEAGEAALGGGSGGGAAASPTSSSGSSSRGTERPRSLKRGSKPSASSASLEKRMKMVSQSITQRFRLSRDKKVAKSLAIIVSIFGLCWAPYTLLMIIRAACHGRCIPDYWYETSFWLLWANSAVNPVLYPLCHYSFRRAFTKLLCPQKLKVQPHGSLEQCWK

## CC1CCCN1C1CCN(c2ccc(NC(=O)c3ccccc3N(C)C)cc2)C1 (stereo unspecified)
[1]
  pKi: 7.86

## Cc1cc(N2CCC(N3CCCC3C)C2)ccc1NC(=O)c1ccc(CO)cc1 (stereo unspecified)
[1]
  pKi: 7.90

## Cc1cc(N2CCC(CN3CCCC3C)C2)ccc1NC(=O)c1ccc(C)c(S(C)(=O)=O)c1 (stereo unspecified)
[1]
  pKi: 7.54

## Cc1cc(N2CCC(N3CCCC3C)C2)ccc1NC(=O)c1ccc2cc[nH]c2c1 (stereo unspecified)
[2]
  metabolised: 16%
[3]
  metabolised: 21%
[1]
  pKi: 7.82
[4]
  metabolised: 64%
[5]
  Papp: 78.1 nm/s

## Cc1cc(N2CCC(N3CCCC3C)C2)ccc1NC(=O)c1ccc(Cl)cc1 (stereo unspecified)
[2]
  metabolised: 32%
[3]
  metabolised: 22%
[1]
  pKi: 8.59
[4]
  metabolised: 33%

## Cc1cc(N2CCC(N3CCCC3C)C2)ccc1NC(=O)c1cc2ccccc2[nH]1 (stereo unspecified)
[1]
  pKi: 7.15

## CC1CCCN1C1CCN(c2ccc(NC(=O)c3cccc(F)c3)c(C(F)(F)F)c2)C1 (stereo unspecified)
[1]
  pKi: 7.40

## Cc1cc(N2CCC(N3CCCC3C)C2)ccc1NC(=O)c1ccc(-c2ccccn2)cc1 (stereo unspecified)
[1]
  pKi: 7.91

## Cc1cc(N2CCC(N3CCCC3C)C2)ccc1NC(=O)c1cccs1 (stereo unspecified)
[1]
  pKi: 7.91

## Cc1cc(N2CCC(N3CCCC3C)C2)ccc1NC(=O)c1ccc2[nH]ccc2c1 (stereo unspecified)
[1]
  pKi: 7.52

## Cc1cc(N2CCC(N3CCCC3C)C2)ccc1NC(=O)c1ccc(-n2cccn2)cc1 (stereo unspecified)
[1]
  pKi: 7.41

## Cc1ccc(F)cc1C(=O)Nc1ccc(N2CCC(N3CCCC3C)C2)cc1 (stereo unspecified)
[1]
  pKi: 8.33

## Cc1cc(NC(=O)c2ccc(Cl)cc2)ccc1N1CCC(N2CCCC2C)C1 (stereo unspecified)
[2]
  metabolised: 29%
[3]
  metabolised: 43%
[1]
  pKi: 8.32
[4]
  metabolised: 90%

## Cc1cc(N2CCC(N3CCCC3C)C2)ccc1NC(=O)c1ccc(S(C)(=O)=O)cc1 (stereo unspecified)
[1]
  pKi: 7.59

## Cc1cc(N2CCC(CN3CCCC3C)C2)ccc1NC(=O)c1ccc(CO)cc1 (stereo unspecified)
[1]
  pKi: 7.21

## Cc1cc(N2CCC(N3CCCC3C)C2)ccc1NC(=O)c1c(C)noc1C (stereo unspecified)
[1]
  pKi: 8.59

## Cc1cc(N2CCC(N3CCCC3C)C2)ccc1NC(=O)c1cccc(F)c1 (stereo unspecified)
[1]
  pKi: 7.92

## CC1CCCN1C1CCN(c2ccc(NC(=O)c3cccs3)cc2)C1 (stereo unspecified)
[1]
  pKi: 7.85

## Cc1cc(N2CCC(N3CCCC3C)C2)ccc1NC(=O)c1cc(Cl)cc(Cl)c1 (stereo unspecified)
[1]
  pKi: 7.62

## CC1CCCN1C1CCN(c2ccc(NC(=O)c3ccccc3F)cc2)C1 (stereo unspecified)
[2]
  metabolised: 12%
[3]
  metabolised: 31%
[1]
  pKi: 8.09
[4]
  metabolised: 48%

## Cc1cc(N2CCC(CN3CCCC3C)C2)ccc1NC(=O)c1ccc2[nH]ccc2c1 (stereo unspecified)
[1]
  pKi: 7.35

## Cc1cc(NC(=O)c2cccs2)ccc1N1CCC(N2CCCC2C)C1 (stereo unspecified)
[1]
  pKi: 7.70

## Cc1cc(NC(=O)c2cc(Cl)cc(Cl)c2)ccc1N1CCC(N2CCCC2C)C1 (stereo unspecified)
[1]
  pKi: 7.27

## CC1CCCN1C1CCN(c2ccc(NC(=O)c3cc(Cl)cc(Cl)c3)cc2)C1 (stereo unspecified)
[6]
  inhibition: 119%
[7]
  pIC50: 9.32
[1]
  pKi: 7.31

## Cc1cc(N2CCC(N3CCCC3C)C2)ccc1NC(=O)c1ccc(Oc2ccccn2)cc1 (stereo unspecified)
[1]
  pKi: 7.64

## Cc1cc(N2CCC(CN3CCCC3C)C2)ccc1NC(=O)c1ccc(-n2cccc2)cc1 (stereo unspecified)
[1]
  pKi: 8.51

## Cc1cc(N2CCC(N3CCCC3C)C2)ccc1NC(=O)c1ccc(C)c(S(C)(=O)=O)c1 (stereo unspecified)
[1]
  pKi: 7.92

## Cc1cc(N2CCC(N3CCCC3C)C2)ccc1NC(=O)c1cn[nH]c1 (stereo unspecified)
[2]
  metabolised: 2%
[3]
  metabolised: 16%
[1]
  pKi: 7.61
[4]
  metabolised: 28%
[5]
  Papp: 3.5 nm/s

## Cc1cc(NC(=O)c2cn[nH]c2)ccc1N1CCC(N2CCCC2C)C1 (stereo unspecified)
[1]
  pKi: 6.90

## CC1CCCN1C1CCN(c2ccc(NC(=O)c3ccccc3F)c(C(F)(F)F)c2)C1 (stereo unspecified)
[2]
  metabolised: 14%
[3]
  metabolised: 44%
[1]
  pKi: 7.77
[4]
  metabolised: 45%

## Cc1cc(N2CCC(N3CCCC3C)C2)ccc1NC(=O)c1ccc(Oc2nccs2)cc1 (stereo unspecified)
[1]
  pKi: 7.62

## CC1CCCN1C1CCN(c2ccc(NC(=O)c3ccc(CN4CCOCC4)cc3)cc2)C1 (stereo unspecified)
[1]
  pKi: 7.15

## Cc1cc(N2CCC(N3CCCC3C)C2)ccc1NC(=O)c1ccc(-c2cccnc2)cc1 (stereo unspecified)
[1]
  pKi: 7.73

## CC1CCCN1C1CCN(c2ccc(NC(=O)c3cccc(F)c3)cc2)C1 (stereo unspecified)
[1]
  pKi: 7.97

## Cc1cc(N2CC3CC4CCCN4C3C2)ccc1NC(=O)c1cc(F)ccc1C (stereo unspecified)
[1]
  pKi: 6.04

## Cc1noc(C)c1C(=O)Nc1ccc(N2CCC(N3CCCC3C)C2)cc1 (stereo unspecified)
[2]
  metabolised: 13%
[3]
  metabolised: 12%
[1]
  pKi: 8.68
[4]
  metabolised: 24%

## Cc1cc(N2CCC(N3CCCC3C)C2)ccc1NC(=O)c1cc(F)ccc1C (stereo unspecified)
[8]
  pKi: < 5.03
[9]
  Activity: Dose-dependent effect
[2]
  metabolised: 5%
[10]
  pKi: 8.07
[11]
  pIC50: 6.32
[12]
  pEC50: 8.96
[13]
  Activity: 59.8%
[14]
  Activity: 39.6%
[1]
  pKi: 8.92
[4]
  metabolised: 38%
[15]
  Activity: 30.4%
[16]
  pKi: 7.78
[17]
  Activity: inactive
[5]
  Papp: 91.9 nm/s
[18]
  solubility: 2.67 mg/mL (≈ 6.75 mM)

## Cc1cc(C)n(-c2ccc(C(=O)Nc3ccc(N4CCC(N5CCCC5C)C4)cc3C)cc2)n1 (stereo unspecified)
[2]
  metabolised: 87%
[3]
  metabolised: 89%
[1]
  pKi: 8.37
[4]
  metabolised: 79%

## Cc1cc(N2CCC(N3CCCC3C)C2)ccc1NC(=O)c1ccc(C#N)cc1 (stereo unspecified)
[1]
  pKi: 7.95

## Cc1cc(N2CCC(N3CCCC3C)C2)ccc1NC(=O)c1ccc(-c2ccncc2)cc1 (stereo unspecified)
[1]
  pKi: 7.57

## COc1ccc(C(=O)Nc2ccc(N3CCC(N4CCCC4C)C3)cc2)cc1 (stereo unspecified)
[1]
  pKi: 7.75

## CC1CCCN1C1CCN(c2ccc(NC(=O)c3cccc(N(C)C)c3)cc2)C1 (stereo unspecified)
[1]
  pKi: 7.48

## Cc1cc(N2CCC(N3CCCC3C)C2)ccc1NC(=O)c1ccc(N2CCOCC2)cc1 (stereo unspecified)
[1]
  pKi: 7.36

## Cc1cc(N2CCC(N3CCCC3C)C2)ccc1NC(=O)c1cccnc1 (stereo unspecified)
[2]
  metabolised: 9%
[3]
  metabolised: 30%
[1]
  pKi: 8.00
[4]
  metabolised: 57%

## Cc1cc(NC(=O)c2c(C)noc2C)ccc1N1CCC(N2CCCC2C)C1 (stereo unspecified)
[1]
  pKi: 8.49

## Cc1cc(N2CCC(N3CCCC3C)C2)ccc1NC(=O)c1ccc(-n2cncn2)cc1 (stereo unspecified)
[1]
  pKi: 8.09

## CC1CCCN1C1CCN(c2ccc(NC(=O)c3cn[nH]c3)cc2)C1 (stereo unspecified)
[1]
  pKi: 7.66

## CC1CCCN1C1CCN(c2ccc(NC(=O)c3ccc(Cl)cc3)cc2)C1 (stereo unspecified)
[19]
  inhibition at 1 µM: 19.9%
[20]
  inhibition at 10 µM: 95%
[2]
  metabolised: 20%
[3]
  metabolised: 43%
[1]
  pKi: 8.33
[4]
  metabolised: 90%

## Cc1cc(N2CCC(N3CCCC3C)C2)ccc1NC(=O)c1ccccc1F (stereo unspecified)
[8]
  pKi: < 5.03
[2]
  metabolised: 15%
[10]
  pKi: 7.86
[11]
  pIC50: 6.00
[12]
  pEC50: 8.54
[1]
  pKi: 8.24
[4]
  metabolised: 28%
[16]
  pKi: 7.26
[17]
  Activity: inactive
[5]
  Papp: 92.4 nm/s

## Cc1ccc(F)cc1C(=O)Nc1ccc(N2CCC(N3CCCC3C)C2)cc1C(F)(F)F (stereo unspecified)
[1]
  pKi: 8.40

## Cc1cc(N2CCC(CN3CCCC3C)C2)ccc1NC(=O)c1ccc2cc[nH]c2c1 (stereo unspecified)
[1]
  pKi: 7.74

## Cc1cc(C(=O)Nc2ccc(N3CCC(N4CCCC4C)C3)cc2)n[nH]1 (stereo unspecified)
[2]
  metabolised: 2%
[3]
  metabolised: 16%
[1]
  pKi: 7.35
[4]
  metabolised: 37%
[5]
  Papp: 91.9 nm/s

## CC1CCCN1C1CCN(c2ccc(NC(=O)c3ccc(N(C)C)cc3)cc2)C1 (stereo unspecified)
[1]
  pKi: 7.47
